Tests used:
Assay type in all cases: cell-based
[1] = tested on: Mycobacterium smegmatis ATCC607; assay: Minimum growth inhibitory concentration on agar culture medium with 1% glycerine by serial dilution method; conditions: agar culture medium with the addition of 1% glycerine
Method: (§1) Minimum growth inhibitory concentrations (mcg/ml) of caprazene-1′″-amide derivatives of the formula (II) against some of microorganisms were measured on an agar culture medium by a serial dilution method according to the standard method as provided by Japanese Society of Chemotherapy. For the cultivation of Mycobacterium smegmatis (one of […]), however, there was used an agar culture medium with the addition of 1% glycerine (the same applies to in the following tests).
(§2) Minimum growth inhibitory concentrations (mcg/ml) of some of the caprazene-1′″-ester derivative of the formula (III) against some of microorganisms were measured on an agar culture medium by a serial dilution method according to the standard method as provided by Japanese Society of Chemotherapy.
(§3) Minimum growth inhibitory concentrations (mcg/ml) of some of the caprazol-1′″-amide derivative of the formula (V) against a variety of microorganisms were measured on an agar medium by a serial dilution method according to the standard method as provided by Japanese Society of Chemotherapy.
(§4) Minimum growth inhibitory concentrations (mcg/ml) of some of the caprazol-1′″-amide-3′″-ester derivative of the formula (VI) against a variety of microorganisms were measured on an agar medium by a serial dilution method according to the standard method as provided by Japanese Society of Chemotherapy.
(§5) Minimum growth inhibitory concentrations (mcg/ml) of some of the caprazol-3′″-ester derivative or caprazol-1′″-ester-3′″-ester derivative of the formula (VII) against a variety of microorganisms were measured on an agar medium by a serial dilution method according to the standard method as provided by Japanese Society of Chemotherapy.

[2] = tested on: Micrococcus luteus FDA16; assay: Minimum growth inhibitory concentration on agar culture medium by serial dilution method (Japanese Society of Chemotherapy)
Method: as §1, §2, §3, §4, §5
(§6) Minimum growth inhibitory concentrations (mcg/ml) of some of the derivative of the formula (VIII) against a variety of microorganisms were measured on an agar medium by a serial dilution method according to the standard method as provided by Japanese Society of Chemotherapy.

[3] = tested on: Staphylococcus aureus FDA209P; assay: as above
Method: as §1, §2, §3, §4, §5, §6

Compound | Minimum growth inhibitory concentration (mcg/ml) against bacteria Mycobacterium smegmatis ATCC607 [1] [µg/mL] | Minimum growth inhibitory concentration (mcg/ml) against bacteria Micrococcus luteus FDA16 [2] [µg/mL] | Minimum growth inhibitory concentration (mcg/ml) against bacteria Staphylococcus aureus FDA209P [3] [µg/mL]
CCCc1ccc(NC(=O)C2=CCN(C)C(C(OC3OC(CN)C(O)C3O)C3OC(n4ccc(=O)[nH]c4=O)C(O)C3O)C(=O)N2C)cc1 (stereo not drawn) [Compound II-3] | 12.5 | 3.13 | 25
CCCCCc1ccc(NC(=O)C2=CCN(C)C(C(OC3OC(CN)C(O)C3O)C3OC(n4ccc(=O)[nH]c4=O)C(O)C3O)C(=O)N2C)cc1 (stereo not drawn) [Compound II-5] | 3.13 | 0.2 | 3.13
CCCCCCc1ccc(NC(=O)C2=CCN(C)C(C(OC3OC(CN)C(O)C3O)C3OC(n4ccc(=O)[nH]c4=O)C(O)C3O)C(=O)N2C)cc1 (stereo not drawn) [Compound II-6] | 0.78 | 0.39 | 1.56
CCCCCCCc1ccc(NC(=O)C2=CCN(C)C(C(OC3OC(CN)C(O)C3O)C3OC(n4ccc(=O)[nH]c4=O)C(O)C3O)C(=O)N2C)cc1 (stereo not drawn) [Compound II-7] | <0.20 | <0.20 | 1.56
CCCCCCCCCc1ccc(NC(=O)C2=CCN(C)C(C(OC3OC(CN)C(O)C3O)C3OC(n4ccc(=O)[nH]c4=O)C(O)C3O)C(=O)N2C)cc1 (stereo not drawn) [Compound II-9] | 1.56 | 0.39 | 3.13
CCCCCCCCCCc1ccc(NC(=O)C2=CCN(C)C(C(OC3OC(CN)C(O)C3O)C3OC(n4ccc(=O)[nH]c4=O)C(O)C3O)C(=O)N2C)cc1 (stereo not drawn) [Compound II-10] | 3.13 | <0.20 | 3.13
CCCCCCCCCCCc1ccc(NC(=O)C2=CCN(C)C(C(OC3OC(CN)C(O)C3O)C3OC(n4ccc(=O)[nH]c4=O)C(O)C3O)C(=O)N2C)cc1 (stereo not drawn) [Compound II-11] | 3.13 | 0.39 | 3.13
CCCCCCCCCCCCc1ccc(NC(=O)C2=CCN(C)C(C(OC3OC(CN)C(O)C3O)C3OC(n4ccc(=O)[nH]c4=O)C(O)C3O)C(=O)N2C)cc1 (stereo not drawn) [Compound II-12] | 6.25 | 0.78 | 3.13
CCCCCCCCCCCCCc1ccc(NC(=O)C2=CCN(C)C(C(OC3OC(CN)C(O)C3O)C3OC(n4ccc(=O)[nH]c4=O)C(O)C3O)C(=O)N2C)cc1 (stereo not drawn) [Compound II-13] | 12.5 | 1.56 | 3.13
CCCCCCCCCCCCCCc1ccc(NC(=O)C2=CCN(C)C(C(OC3OC(CN)C(O)C3O)C3OC(n4ccc(=O)[nH]c4=O)C(O)C3O)C(=O)N2C)cc1 (stereo not drawn) [Compound II-14] | 25 | 3.13 | 6.25
CCCCCCOc1ccc(NC(=O)C2=CCN(C)C(C(OC3OC(CN)C(O)C3O)C3OC(n4ccc(=O)[nH]c4=O)C(O)C3O)C(=O)N2C)cc1 (stereo not drawn) [Compound II-20] | 1.56 | 0.39 | 6.25
CCCCCCCCCOc1ccc(NC(=O)C2=CCN(C)C(C(OC3OC(CN)C(O)C3O)C3OC(n4ccc(=O)[nH]c4=O)C(O)C3O)C(=O)N2C)cc1 (stereo not drawn) [Compound II-23] | 0.78 | 0.39 | 1.56
CCCCCCNC(=O)C1=CCN(C)C(C(OC2OC(CN)C(O)C2O)C2OC(n3ccc(=O)[nH]c3=O)C(O)C2O)C(=O)N1C (stereo not drawn) [Compound II-A] | 100 | 3.13 | >100
CCCCCCCNC(=O)C1=CCN(C)C(C(OC2OC(CN)C(O)C2O)C2OC(n3ccc(=O)[nH]c3=O)C(O)C2O)C(=O)N1C (stereo not drawn) [Compound II-B] | 25 | 1.56 | 25
CCCCCCCCNC(=O)C1=CCN(C)C(C(OC2OC(CN)C(O)C2O)C2OC(n3ccc(=O)[nH]c3=O)C(O)C2O)C(=O)N1C (stereo not drawn) [Compound II-C] | 12.5 | 0.78 | 6.25
CCCCCCCCCNC(=O)C1=CCN(C)C(C(OC2OC(CN)C(O)C2O)C2OC(n3ccc(=O)[nH]c3=O)C(O)C2O)C(=O)N1C (stereo not drawn) [Compound II-D] | 3.13 | 0.39 | 6.25
CCCCCCCCCCNC(=O)C1=CCN(C)C(C(OC2OC(CN)C(O)C2O)C2OC(n3ccc(=O)[nH]c3=O)C(O)C2O)C(=O)N1C (stereo not drawn) [Compound II-E] | 0.78 | 0.39 | 25
CCCCCCCCCCCNC(=O)C1=CCN(C)C(C(OC2OC(CN)C(O)C2O)C2OC(n3ccc(=O)[nH]c3=O)C(O)C2O)C(=O)N1C (stereo not drawn) [Compound II-F] | 0.39 | 0.39 | 1.56
CCCCCCCCCCCCNC(=O)C1=CCN(C)C(C(OC2OC(CNC(=O)OC(C)(C)C)C(O)C2O)C2OC(n3ccc(=O)[nH]c3=O)C(O)C2O)C(=O)N1C (stereo not drawn) [Compound II-G-N-Boc] | 50 | 50 | 50
CCCCCCCCCCCCNC(=O)C1=CCN(C)C(C(OC2OC(CN)C(O)C2O)C2OC(n3ccc(=O)[nH]c3=O)C(O)C2O)C(=O)N1C (stereo not drawn) [Compound II-G] | 0.39 | 0.39 | 3.13
CCCCCCCCCCCCCNC(=O)C1=CCN(C)C(C(OC2OC(CNC(=O)OC(C)(C)C)C(O)C2O)C2OC(n3ccc(=O)[nH]c3=O)C(O)C2O)C(=O)N1C (stereo not drawn) [Compound II-H-N-Boc] | 25 | 12.5 | 25
